Measurements as given in ChEMBL document CHEMBL1275596, “Prevalence of fosfomycin resistance among CTX-M-producing Escherichia coli clinical isolates in Japan and identification of novel plasmid-mediated fosfomycin-modifying enzymes” (2010).
Converted amounts (≈) assume the structure as drawn.

How the values were obtained:
Assay type in all cases: functional
Escherichia coli [1] = experiment: Antimicrobial activity against beta-lactamase CTX-M-producing Escherichia coli isolate 08-555 harboring glpT gene with 981[227-bp deletion]1209
Escherichia coli [2] = experiment: Antimicrobial activity against beta-lactamase CTX-M-producing Escherichia coli isolate 08-642
Escherichia coli [3] = experiment: Antimicrobial activity against beta-lactamase CTX-M-producing Escherichia coli isolate 06-607
Escherichia coli [4] = experiment: Antimicrobial activity against beta-lactamase CTX-M-producing Escherichia coli isolate 05-244 harboring glpT gene with 328[14-bp duplication]343, uhpT gene with 1173[96-bp deletion]1270
Escherichia coli [5] = experiment: Antimicrobial activity against beta-lactamase CTX-M-producing Escherichia coli isolate 05-690 harboring uhpA stop at amino acid at 144
Escherichia coli [6] = experiment: Antimicrobial activity against beta-lactamase CTX-M-producing Escherichia coli isolate 03-271
Escherichia coli [7] = experiment: Antimicrobial activity against beta-lactamase CTX-M-producing Escherichia coli isolate 03-285
Escherichia coli [8] = experiment: Antimicrobial activity against beta-lactamase CTX-M-producing Escherichia coli isolate 03-286 harboring glpT gene with 405[5-bp duplication]411
Escherichia coli [9] = experiment: Antimicrobial activity against beta-lactamase CTX-M-producing Escherichia coli isolate 03-287 harboring glpT gene with 405[5-bp duplication]411
Escherichia coli [10] = experiment: Antimicrobial activity against beta-lactamase CTX-M-producing Escherichia coli isolate C316
Escherichia coli [11] = experiment: Antimicrobial activity against Escherichia coli CSH-2 conjugant of strain 08-642
Escherichia coli [12] = experiment: Antimicrobial activity against Escherichia coli CSH-2 conjugant of strain 08-607
Escherichia coli [13] = experiment: Antimicrobial activity against Escherichia coli CSH-2 conjugant of strain C316
Escherichia coli [14] = experiment: Antimicrobial activity against rifampin-, nalidixic acid resistant Escherichia coli CSH-2
Escherichia coli [15] = experiment: Antimicrobial activity against Escherichia coli DH10B transformant containing Kpn1 fragment with fosA3 gene from 08-642
Escherichia coli [16] = experiment: Antimicrobial activity against Escherichia coli DH10B transformant containing Sac2 fragment with fosA3 gene from 08-607
Escherichia coli [17] = experiment: Antimicrobial activity against Escherichia coli DH10B transformant containing Sac2 fragment with fosC2 gene from pHPA
Escherichia coli [18] = experiment: Antimicrobial activity against streptomycin-, chloramphenicol-resistant pBCKS positive Escherichia coli DH10B transformant
Escherichia coli [19] = experiment: Antimicrobial activity against beta-lactamase CTX-M-producing Escherichia coli isolate 08-555 harboring glpT gene with 981[227-bp deletion]1209 by agar dilution method
Escherichia coli [20] = experiment: Antimicrobial activity against beta-lactamase CTX-M-producing Escherichia coli isolate 08-642 by agar dilution method
Escherichia coli [21] = experiment: Antimicrobial activity against beta-lactamase CTX-M-producing Escherichia coli isolate 06-607 by agar dilution method
Escherichia coli [22] = experiment: Antimicrobial activity against beta-lactamase CTX-M-producing Escherichia coli isolate 05-244 harboring glpT gene with 328[14-bp duplication]343, uhpT gene with 1173[96-bp deletion]1270 by agar dilution method
Escherichia coli [23] = experiment: Antimicrobial activity against beta-lactamase CTX-M-producing Escherichia coli isolate 05-690 harboring uhpA stop codon at amino acid at 144 by agar dilution method
Escherichia coli [24] = experiment: Antimicrobial activity against beta-lactamase CTX-M-producing Escherichia coli isolate 03-271 by agar dilution method
Escherichia coli [25] = experiment: Antimicrobial activity against beta-lactamase CTX-M-producing Escherichia coli isolate 03-285 by agar dilution method
Escherichia coli [26] = experiment: Antimicrobial activity against beta-lactamase CTX-M-producing Escherichia coli isolate 03-286 harboring glpT gene with 405[5-bp duplication]411 by agar dilution method
Escherichia coli [27] = experiment: Antimicrobial activity against beta-lactamase CTX-M-producing Escherichia coli isolate 03-287 harboring glpT gene with 405[5-bp duplication]411 by agar dilution method
Escherichia coli [28] = experiment: Antimicrobial activity against beta-lactamase CTX-M-producing Escherichia coli isolate C316 by agar dilution method
Escherichia coli [29] = experiment: Antimicrobial activity against Escherichia coli CSH-2 conjugant of strain 08-642 by agar dilution method
Escherichia coli [30] = experiment: Antimicrobial activity against Escherichia coli CSH-2 conjugant of strain 08-607 by agar dilution method
Escherichia coli [31] = experiment: Antimicrobial activity against Escherichia coli CSH-2 conjugant of strain C316 by agar dilution method
Escherichia coli [32] = experiment: Antimicrobial activity against rifampin-, nalidixic acid resistant Escherichia coli CSH-2 by agar dilution method
Escherichia coli [33] = experiment: Antimicrobial activity against Escherichia coli DH10B transformant containing Kpn1 fragment with fosA3 gene from 08-642 by agar dilution method
Escherichia coli [34] = experiment: Antimicrobial activity against Escherichia coli DH10B transformant containing Sac2 fragment with fosA3 gene from 08-607 by agar dilution method
Escherichia coli [35] = experiment: Antimicrobial activity against Escherichia coli DH10B transformant containing Sac2 fragment with fosC2 gene from pHPA by agar dilution method
Escherichia coli [36] = experiment: Antimicrobial activity against streptomycin-, chloramphenicol-resistant pBCKS positive Escherichia coli DH10B transformant by agar dilution method

## CO/N=C(\C(=O)N[C@@H]1C(=O)N2C(C(=O)O)=C(COC(C)=O)CS[C@H]12)c1csc(N)n1 [CEFOTAXIME]
Escherichia coli [1]
  MIC: > 128 µg/mL
Escherichia coli [2]
  MIC: 64 µg/mL (≈ 141 µM)
Escherichia coli [3]
  MIC: 16 µg/mL (≈ 35.1 µM)
Escherichia coli [4]
  MIC: > 128 µg/mL
Escherichia coli [5]
  MIC: 64 µg/mL (≈ 141 µM)
Escherichia coli [6]
  MIC: 32 µg/mL (≈ 70.3 µM)
Escherichia coli [7]
  MIC: > 128 µg/mL
Escherichia coli [8]
  MIC: > 128 µg/mL
Escherichia coli [9]
  MIC: 128 µg/mL (≈ 281 µM)
Escherichia coli [10]
  MIC: 128 µg/mL (≈ 281 µM)
Escherichia coli [11]
  MIC: 128 µg/mL (≈ 281 µM)
Escherichia coli [12]
  MIC: 32 µg/mL (≈ 70.3 µM)
Escherichia coli [13]
  MIC: 64 µg/mL (≈ 141 µM)
Escherichia coli [14]
  MIC: ≤ 0.06 µg/mL
Escherichia coli [15]
  MIC: ≤ 0.06 µg/mL
Escherichia coli [16]
  MIC: ≤ 0.06 µg/mL
Escherichia coli [17]
  MIC: ≤ 0.06 µg/mL
Escherichia coli [18]
  MIC: ≤ 0.06 µg/mL

## C[C@@H]1O[C@@H]1P(=O)(O)O [FOSFOMYCIN]
Escherichia coli [19]
  MIC: > 256 µg/mL
Escherichia coli [20]
  MIC: > 256 µg/mL
Escherichia coli [21]
  MIC: > 256 µg/mL
Escherichia coli [22]
  MIC: 128 µg/mL (≈ 927 µM)
Escherichia coli [23]
  MIC: 64 µg/mL (≈ 464 µM)
Escherichia coli [24]
  MIC: 64 µg/mL (≈ 464 µM)
Escherichia coli [25]
  MIC: 128 µg/mL (≈ 927 µM)
Escherichia coli [26]
  MIC: 64 µg/mL (≈ 464 µM)
Escherichia coli [27]
  MIC: > 256 µg/mL
Escherichia coli [28]
  MIC: 256 µg/mL (≈ 1850 µM)
Escherichia coli [29]
  MIC: > 256 µg/mL
Escherichia coli [30]
  MIC: > 256 µg/mL
Escherichia coli [31]
  MIC: > 256 µg/mL
Escherichia coli [32]
  MIC: 1 µg/mL (≈ 7.24 µM)
Escherichia coli [33]
  MIC: > 256 µg/mL
Escherichia coli [34]
  MIC: > 256 µg/mL
Escherichia coli [35]
  MIC: > 256 µg/mL
Escherichia coli [36]
  MIC: 0.5 µg/mL (≈ 3.62 µM)
